Literature values, collected in patent publication US20030212034A1, “Method of treatment of obesity and paralyzed muscle and ergogenic aids” (priority 2002, published 2003).

Tested on: AMPK
Details: analogues of 5′-AMP; Hardie & Carling 1997; cited from earlier work

| Compound | potency of AMPK activation in vitro |
| --- | --- |
| Nc1ncnc2c([C@@H]3O[C@H](COP(=O)(O)O)[C@@H](O)[C@H]3O)[nH]nc12 [Formycin A 5′-monophosphate] | less potently |
| NC(=O)c1ncn([C@@H]2O[C@H](COP(=O)(O)O)[C@@H](O)[C@H]2O)c1N [ZMP] | less potently |
| Nc1ncnc2c1ncn2[C@@H]1O[C@H](COP(N)(=O)O)[C@@H](O)[C@H]1O [adenosine 5′-phosphoramidate] | more potently |
| Nc1ncnc2c1ncn2[C@@H]1O[C@H](COP(O)(O)=S)[C@@H](O)[C@H]1O [adenosine-5′-thiomonophosphate] | more potently |
